From article PMC11672294, “The Antipsychotic Drug Aripiprazole Suppresses Colorectal Cancer by Targeting LAMP2a to Induce RNH1/miR‐99a/mTOR‐Mediated Autophagy and Apoptosis” (Advanced Science, 2024)
Counter-ions that a name gives are not always drawn. Starred links: 1 amine or outer side, 2 acyl side, 3 side chain; linkers in the order of their positions; H or OH if unused. Positions of bridges follow the written chain, without caps; N, C: chain ends. Non-standard residues stand in square brackets, D forms with d. Residues, ends and D or L forms follow the SMILES beside them. *: point of attachment. hTyr(3S-OH,4S-OH,3'-OSO3H) = N[C@H](C(=O)O)[C@H](O)[C@@H](O)c1ccc(O)c(OS(=O)(=O)O)c1; Orn(4R-OH,5R-OH) = O=C([C@H](C[C@@H](O)[C@@H](O)N[*:3])N[*:1])[*:2]; Pro(3S-OH,4S-Me) = C[C@H]1CN[C@H](C(=O)O)[C@H]1O; X1 = CCCCCOc1ccc(-c2cc(-c3ccc(C(=O)*)cc3)no2)cc1; Gln(3R-OH) = NC(=O)C[C@@H](O)[C@H](N)C(=O)O; Hyp = O=C(O)[C@@H]1C[C@@H](O)CN1

system: HT29; conditions: 72 h, relative to DMSO; 10 µM
Summary of the method: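 Cells were exposed to drug for 72 h, then to WST-1 for 2 h at 37 °C, and absorbance was read at 450 nm as viability against DMSO treatment. In the screen, each compound was applied at 10 µM.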

Row | SMILES | Relative cell viability (%)
1 | CN1CCC(=C2c3ccccc3CC(=O)c3sccc32)CC1 [Ketotifen Fumarate] | 182.5%
2 | N[C@@H](Cc1cc(I)c(Oc2cc(I)c(O)c(I)c2)c(I)c1)C(=O)O [L-Thyroxine] | 67.96%
3 | C[N+](C)(C)C[C@H](O)CC(=O)[O-] [L-carnitine] | 116.1%
4 | Cc1c(C(=O)Nc2ccc(N3C[C@@H](C)O[C@@H](C)C3)nc2)cccc1-c1ccc(OC(F)(F)F)cc1 [LDE225 (NVP-LDE225,Erismodegib)] | 111.4%
5 | Cc1cc(Nc2ncc(Cl)c(Nc3ccccc3S(=O)(=O)C(C)C)n2)c(OC(C)C)cc1C1CCNCC1 [LDK378] | 0%
6 | CN(C)C(=O)c1cc2cnc(Nc3ccc(N4CCNCC4)cn3)nc2n1C1CCCC1 [LEE011] | 66.24%
7 | Cc1cccc(-c2nn3c(c2-c2ccnc4ccc(C(N)=O)cc24)CCC3)n1 [LY2157299] | 106.7%
8 | Cc1cc(Nc2cc(CN3CCOCC3)c3nc(C)c(Cc4ccc(Cl)cc4F)n3n2)n[nH]1 [LY2784544] | 102.6%
9 | CCN1CCN(Cc2ccc(Nc3ncc(F)c(-c4cc(F)c5nc(C)n(C(C)C)c5c4)n3)nc2)CC1 [LY2835219] | 5.983%
10 | CC(CCc1ccccc1)NCC(O)c1ccc(O)c(C(N)=O)c1 (stereo not drawn) [Labetalol HCl] | 55.76%
11 | CCOC(=O)C1=C(C)NC(C)=C(C(=O)OCC)C1c1ccccc1/C=C/C(=O)OC(C)(C)C [Lacidipine] | 79.32%
12 | O=C(C[S+]([O-])Cc1ccco1)NC/C=C\COc1cc(CN2CCCCC2)ccn1 (stereo not drawn) [Lafutidine] | 119.6%
13 | Nc1nnc(-c2cccc(Cl)c2Cl)c(N)n1 [Lamotrigine] | 100%
14 | Cc1c(OCC(F)(F)F)ccnc1C[S+]([O-])c1nc2ccccc2[nH]1 (stereo not drawn) [Lansoprazole] | 63.4%
15 | CS(=O)(=O)CCNCc1ccc(-c2ccc3ncnc(Nc4ccc(OCc5cccc(F)c5)c(Cl)c4)c3c2)o1 [Lapatinib] | 94.3%
16 | COC(=O)N[C@H](C(=O)N1CC2(CC2)C[C@H]1c1ncc(-c2ccc3c(c2)C(F)(F)c2cc(-c4ccc5nc([C@@H]6[C@H]7CC[C@H](C7)N6C(=O)[C@@H](NC(=O)OC)C(C)C)[nH]c5c4)ccc2-3)[nH]1)C(C)C [Ledipasvir (GS5885)] | 80.34%
17 | Cc1oncc1C(=O)Nc1ccc(C(F)(F)F)cc1 [Leflunomide] | 55.61%
18 | N#Cc1ccc(C(c2ccc(C#N)cc2)n2cncn2)cc1 [Letrozole] | 82.09%
19 | CC[C@@H](C(N)=O)N1CCCC1=O [Levetiracetam] | 78.97%
20 | C[C@H]1COc2c(N3CCN(C)CC3)c(F)cc3c(=O)c(C(=O)O)cn1c23 [Levofloxacin] | 124%
21 | C[C@@H]1CC(=O)NN=C1c1ccc(NN=C(C#N)C#N)cc1 [Levosimendan] | 103.1%
22 | CCN1CCC[C@H]1CNC(=O)c1cc(S(N)(=O)=O)ccc1OC [Levosulpiride] | 114.3%
23 | CC1(C)Cc2c(-c3ccccc3)c(-c3ccc(Cl)cc3)c(CC(=O)O)n2C1 [Licofelone] | 137.9%

Row | SMILES | Relative cell viability (%)
24 | CC#CCn1c(N2CCC[C@@H](N)C2)nc2c1c(=O)n(Cc1nc(C)c3ccccc3n1)c(=O)n2C [Linagliptin] | 66.5%
25 | N[C@@H](Cc1cc(I)c(Oc2ccc(O)c(I)c2)c(I)c1)C(=O)O [Liothyronine Sodium] | 85.76%
26 | O=C(NC1CCN(CCCCC2(C(=O)NCC(F)(F)F)c3ccccc3-c3ccccc32)CC1)c1ccccc1-c1ccc(C(F)(F)F)cc1 [Lomitapide Mesylate] | 0%
27 | NC(=O)N1CCC(CC(=O)N2CCC([C@H]3c4ncc(Br)cc4CCc4cc(Cl)cc(Br)c43)CC2)CC1 [Lonafarnib] | 95.63%
28 | O=C(O)c1nn(Cc2ccc(Cl)cc2Cl)c2ccccc12 [Lonidamine] | 47.57%
29 | Cc1cccc(C)c1OCC(=O)N[C@@H](Cc1ccccc1)[C@@H](O)C[C@H](Cc1ccccc1)NC(=O)[C@H](C(C)C)N1CCCNC1=O [Lopinavir] | 55.61%
30 | CN1C(C(=O)Nc2ccccn2)=C(O)c2sc(Cl)cc2S1(=O)=O [Lornoxicam] | 228.6%
31 | CCCCc1nc(Cl)c(CO)n1Cc1ccc(-c2ccccc2-c2nn[nH]n2)cc1 [Losartan Potassium (DuP 753)] | 88.32%
32 | Cc1c(F)cc(C(=O)NC2CC2)cc1-c1ccc(C(=O)NCC(C)(C)C)cn1 [Losmapimod (GW856553X)] | 94.44%
33 | CC[C@H](C)C(=O)O[C@H]1C[C@@H](C)C=C2C=C[C@H](C)[C@H](CC[C@@H]3C[C@@H](O)CC(=O)O3)[C@H]21 [Lovastatin] | 169.7%
34 | CC(C(=O)O)c1ccc(CC2CCCC2=O)cc1 (stereo not drawn) [Loxoprofen] | 82.91%
35 | N#C/C(=C1/SC[C@@H](c2ccc(Cl)cc2Cl)S1)n1ccnc1 [Luliconazole] | 76.67%
36 | Cn1cnc2c(F)c(Nc3ccc(Br)cc3F)c(C(=O)NOCCO)cc21 [MEK162 (ARRY-162, ARRY-438162)] | 36.75%
37 | CC(C)C[C@H](NC(=O)CNC(=O)c1cc(Cl)ccc1Cl)B(O)O [MLN2238] | 125%
38 | Cc1nnc(C(C)C)n1[C@@H]1C[C@H]2CC[C@@H](C1)N2CC[C@H](NC(=O)C1CCC(F)(F)CC1)c1ccccc1 [Maraviroc] | 135.7%
39 | CNC(=O)[C@@H](NC(=O)[C@H](CC(C)C)[C@H](O)C(=O)NO)C(C)(C)C [Marimastat(BB-2516)] | 121.4%
40 | CCOC(=O)c1c(C)n(C)c2ccc(O)cc12 [Mecarbinate] | 130.3%
41 | Cc1cccc(CN2CCN(C(c3ccccc3)c3ccc(Cl)cc3)CC2)c1 (stereo not drawn) [Meclizine 2HCl] | 130.4%
42 | Cc1ccc(Cl)c(Nc2ccccc2C(=O)O)c1Cl [Meclofenamate Sodium] | 83.03%
43 | Cc1cccc(C(C)c2cnc[nH]2)c1C (stereo not drawn) [Medetomidine HCl] | 57.77%
44 | CC(=O)O[C@]1(C(C)=O)CC[C@H]2[C@@H]3C=C(C)C4=CC(=O)CC[C@]4(C)[C@H]3CC[C@@]21C [Megestrol Acetate] | 68.07%
45 | CNC[C@H](O)[C@@H](O)[C@H](O)[C@H](O)CO [Meglumine] | 172.9%
46 | Cc1cnc(NC(=O)C2=C(O)c3ccccc3S(=O)(=O)N2C)s1 [Meloxicam] | 51.27%

Row | SMILES | Relative cell viability (%)
47 | CC12CC3CC(C)(C1)CC(N)(C3)C2 [Memantine HCl] | 108.7%
48 | CC1=CC(=O)c2ccccc2C1=O [Menadione] | 15.16%
49 | Sc1ncnc2nc[nH]c12 [Mercaptopurine (6-MP)] | 52.49%
50 | C[C@@H](O)[C@H]1C(=O)N2C(C(=O)O)=C(S[C@@H]3CN[C@H](C(=O)N(C)C)C3)[C@H](C)[C@H]12 [Meropenem] | 72.74%
51 | O=S(=O)(O)CCS [Mesna] | 56.36%
52 | C#C[C@]1(O)CC[C@H]2[C@@H]3CCc4cc(OC)ccc4[C@H]3CC[C@@]21C [Mestranol] | 119.6%
53 | COc1ccccc1OCC(O)COC(N)=O (stereo not drawn) [Methocarbamol] | 46.19%
54 | COc1c2occc2cc2ccc(=O)oc12 [Methoxsalen] | 170.4%
55 | C[N+]1(C)[C@@H]2C[C@@H](OC(=O)[C@H](CO)c3ccccc3)C[C@H]1[C@@H]1O[C@@H]12 [Methscopolamine] | 132.5%
56 | C[C@H]1C[C@@H]2[C@H]([C@@H](O)C[C@@]3(C)[C@H]2CC[C@]3(O)C(=O)CO)[C@@]2(C)C=CC(=O)C=C12 [Methylprednisolone] | 42.37%
57 | CCN(CC)CCNC(=O)c1cc(Cl)c(N)cc1OC [MetoclopraMide HCl] | 75.76%
58 | COCCc1ccc(OCC(O)CNC(C)C)cc1 (stereo not drawn) [Metoprolol Tartrate] | 94.49%
59 | Cc1ncc([N+](=O)[O-])n1CCO [Metronidazole] | 113.4%
60 | CC[C@H](C)C(=O)O[C@H]1CCC=C2C=C[C@H](C)[C@H](CC[C@@H]3C[C@@H](O)CC(=O)O3)[C@H]21 [Mevastatin] | 86.67%
61 | Cc1cccc(C)c1OCC(C)N (stereo not drawn) [Mexiletine HCl] | 84.85%
62 | CC1(C)S[C@@H]2[C@H](NC(=O)[C@H](NC(=O)N3CCN(S(C)(=O)=O)C3=O)c3ccccc3)C(=O)N2[C@H]1C(=O)O [Mezlocillin Sodium] | 90.303%
63 | CN1CCN2c3ccccc3Cc3ccccc3C2C1 (stereo not drawn) [Mianserin HCl] | 57.17%
64 | CCCCCOc1ccc(-c2cc(-c3ccc(C(=O)N[C@H]4C[C@@H](O)[C@@H](O)NC(=O)[C@@H]5[C@@H](O)[C@@H](C)CN5C(=O)[C@H]([C@H](O)CC(N)=O)NC(=O)[C@H]([C@H](O)[C@@H](O)c5ccc(O)c(OS(=O)(=O)O)c5)NC(=O)[C@@H]5C[C@@H](O)CN5C(=O)[C@H]([C@@H](C)O)NC4=O)cc3)no2)cc1 [Micafungin Sodium] (X1-[Orn(4R-OH,5R-OH)]T[Hyp][hTyr(3S-OH,4S-OH,3'-OSO3H)][Gln(3R-OH)][Pro(3S-OH,4S-Me)]; lactam 1-C) | 77.58%
65 | Clc1ccc(COC(Cn2ccnc2)c2ccc(Cl)cc2Cl)c(Cl)c1 (stereo not drawn) [Miconazole Nitrate] | 184.3%
66 | CC#C[C@]1(O)CC[C@H]2[C@@H]3CCC4=CC(=O)CCC4=C3[C@@H](c3ccc(N(C)C)cc3)C[C@@]21C [Mifepristone] | 46.12%
67 | CN1CCN2c3ncccc3Cc3ccccc3C2C1 (stereo not drawn) [Mirtazapine] | 177.9%
68 | Clc1ccc(C(c2ccccc2Cl)C(Cl)Cl)cc1 (stereo not drawn) [Mitotane] | 63.98%
69 | CCOC(=O)[C@H](CCc1ccccc1)N[C@@H](C)C(=O)N1Cc2cc(OC)c(OC)cc2C[C@H]1C(=O)O [Moexipril HCl] | 110.2%
